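Interpolation was linear, between the two tested concentrations surrounding the appropriate level; five concentrations were tested over 48 hours in 96-well plates. The concentration for 50% growth inhibition is given as GI50. At the TGI there is no net growth.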
Experiments:
Assay in all cases: inhibition of tumour cell growth, NCI panel, 48 h
CAKI-1 renal = tested on: CAKI-1 renal
DU-145 prostate = tested on: DU-145 prostate
HCT-15 colon = tested on: HCT-15 colon
LOX IMVI melanoma = tested on: LOX IMVI melanoma
MDA-MB-231 breast = tested on: MDA-MB-231 breast
NCI-H226 lung = tested on: NCI-H226 lung
RPMI-8226 leukemia = tested on: RPMI-8226 leukemia
SK-MEL-2 melanoma = tested on: SK-MEL-2 melanoma
SN12C renal = tested on: SN12C renal
TK-10 renal = tested on: TK-10 renal

SMILES	GI50 (CAKI-1 renal)	TGI (CAKI-1 renal)	GI50 (DU-145 prostate)	TGI (DU-145 prostate)	GI50 (HCT-15 colon)	TGI (HCT-15 colon)	GI50 (LOX IMVI melanoma)	TGI (LOX IMVI melanoma)	GI50 (MDA-MB-231 breast)	TGI (MDA-MB-231 breast)	GI50 (NCI-H226 lung)	TGI (NCI-H226 lung)	GI50 (RPMI-8226 leukemia)	TGI (RPMI-8226 leukemia)	GI50 (SK-MEL-2 melanoma)	TGI (SK-MEL-2 melanoma)	GI50 (SN12C renal)	TGI (SN12C renal)	GI50 (TK-10 renal)	TGI (TK-10 renal)
CCN1CCN(C(=O)[C@@]2(C)CC[C@]3(C)CC[C@]4(C)C(=CC(=O)[C@@H]5[C@@]6(C)CC[C@H](OC7C[C@@H](O)[C@@H](O)C(C)O7)C(C)(C)[C@@H]6CC[C@]54C)[C@@H]3C2)CC1 (stereo not given in full)	7.81 µM	14.8 µM	8.71 µM	16.3 µM	2.21 µM	8.67 µM	1.01 µM	2 µM	1.13 µM	2.59 µM	10.3 µM	21.3 µM	1.09 µM	2.52 µM	8.95 µM	17.9 µM	0.896 µM	1.83 µM	0.806 µM	1.9 µM
CC/C=C\C[C@H](O)C/C=C1/C(=O)C(Cl)=C[C@@H]1C/C=C\CCCC(=O)OC	0.523 µM	1.89 µM	0.692 µM	2.7 µM	0.387 µM	1.67 µM	0.258 µM	0.52 µM	0.71 µM	2.9 µM	0.537 µM	2.26 µM	0.21 µM	0.88 µM	0.843 µM	3.52 µM	0.426 µM	1.33 µM	0.946 µM	3.09 µM
CC1(C)S[C@@H]2[C@H](NC(=O)C3(N)CCCCC3)C(=O)N2[C@H]1C(=O)O	–	> 100 µM	–	> 100 µM	–	> 100 µM	–	> 100 µM	–	> 100 µM	–	> 100 µM	–	> 100 µM	–	> 100 µM	–	> 100 µM	–	> 100 µM
Oc1ccc(Nc2ncnc3c2sc2ncccc23)cc1	< 0.0185 µM	9.21 µM	0.0369 µM	> 100 µM	0.088 µM	> 100 µM	0.0368 µM	> 100 µM	> 100 µM	> 100 µM	0.352 µM	> 100 µM	0.0485 µM	> 100 µM	27.3 µM	> 100 µM	0.244 µM	> 100 µM	> 100 µM	> 100 µM
Cn1c(I)c(C#CCO[Si](C)(C)C(C)(C)C)c(=O)[nH]c1=O	3.29 µM	12.6 µM	15.3 µM	28.6 µM	13.5 µM	27.6 µM	1.83 µM	4.42 µM	17.3 µM	33.1 µM	17.1 µM	32.7 µM	4.39 µM	14.2 µM	13.9 µM	27.7 µM	17.1 µM	34.2 µM	16.3 µM	30.2 µM
COc1ccc(Sc2[nH]c(C(C)=O)c3ccccc23)cc1	2.86 µM	24 µM	16 µM	36.8 µM	11.5 µM	31 µM	11.8 µM	24.4 µM	11.4 µM	29.5 µM	5.66 µM	27.6 µM	10.9 µM	33.4 µM	13 µM	31.2 µM	11 µM	24.7 µM	15 µM	37.5 µM
O=C(Nc1ccc(Br)cc1F)c1cc(F)ccc1O	0.314 µM	2.62 µM	0.698 µM	64.6 µM	0.773 µM	7.34 µM	0.405 µM	2.91 µM	0.41 µM	4 µM	0.67 µM	3.46 µM	0.296 µM	1.36 µM	0.398 µM	2.56 µM	0.366 µM	2.92 µM	3.26 µM	18 µM
CNCc1ccccc1-c1csc([C@@H](C)Nc2nc(C)nc3cc(OC)c(OC)cc23)c1	1.28 µM	2.55 µM	4.59 µM	15.6 µM	1.61 µM	3.55 µM	1.57 µM	2.98 µM	1.85 µM	3.78 µM	13.6 µM	32.7 µM	1.77 µM	4.3 µM	1.87 µM	3.69 µM	1.48 µM	5.02 µM	1.09 µM	2.52 µM
C/C=C(\C)C(=O)O[C@H]1C=CC(=O)O[C@H]1CCC(=O)[C@H](C)O	7.16 µM	17.3 µM	16.9 µM	33.1 µM	11.6 µM	27.1 µM	11.8 µM	27.4 µM	16.8 µM	32.4 µM	15.1 µM	34.8 µM	8.88 µM	34 µM	19.1 µM	47.3 µM	18.5 µM	46.9 µM	17.7 µM	34 µM
COc1cc(-c2oc(=O)ccc2C#Cc2ccccn2)cc(OC)c1OC	0.563 µM	3.73 µM	3.48 µM	> 29.5 µM	1.54 µM	> 100 µM	4.38 µM	> 100 µM	3.57 µM	> 72.4 µM	7.76 µM	> 100 µM	1.8 µM	9.59 µM	4.15 µM	> 100 µM	5.5 µM	> 100 µM	4.98 µM	> 100 µM
CCN(CC)CCC(CNc1ccnc2cc(Cl)ccc12)c1ccc(Cl)cc1 (stereo not given)	0.496 µM	2.36 µM	5.44 µM	17.7 µM	1.05 µM	4.89 µM	1.02 µM	2.38 µM	1.28 µM	3.21 µM	2.46 µM	8.19 µM	1.02 µM	3.67 µM	1.57 µM	3.18 µM	1.84 µM	10.4 µM	0.436 µM	1.63 µM
CSc1nc(=O)n(CCC#N)nc1SC	–	> 100 µM	–	> 100 µM	–	> 100 µM	–	43.5 µM	–	> 100 µM	–	84.2 µM	–	98.4 µM	–	39.8 µM	–	> 100 µM	–	> 100 µM
COc1cc(Nc2ncccc2C(=O)NCc2cn(Cc3cccc(Oc4ccccc4)c3)nn2)cc(OC)c1	6.3 µM	> 100 µM	10.5 µM	> 100 µM	3.89 µM	> 100 µM	5.1 µM	> 100 µM	5.33 µM	> 100 µM	9.82 µM	> 100 µM	5.25 µM	> 100 µM	6.68 µM	> 100 µM	7.41 µM	> 100 µM	51.6 µM	> 100 µM
N#Cc1c(NC(=O)NCc2ccccc2)sc2c1CCCCC2	0.659 µM	> 100 µM	0.564 µM	4.71 µM	0.417 µM	> 100 µM	0.573 µM	> 100 µM	0.973 µM	13.9 µM	1.05 µM	> 28.8 µM	0.397 µM	–	2.27 µM	> 100 µM	0.682 µM	> 100 µM	5.92 µM	> 100 µM
CCCCC#CC1=C(Br)C(=O)OC1	1.26 µM	4.63 µM	0.752 µM	2.34 µM	1.02 µM	–	0.318 µM	–	1.78 µM	4.03 µM	3.76 µM	26.6 µM	0.32 µM	2.72 µM	3.12 µM	15.2 µM	1.58 µM	4.27 µM	1.8 µM	4.53 µM
COc1cccc(C2CC(C)(O)Oc3cc4c(cc32)OCO4)c1O (stereo not given)	–	> 100 µM	–	73.2 µM	–	> 72.5 µM	–	> 100 µM	–	67.7 µM	–	57.9 µM	–	> 78.2 µM	–	> 80.4 µM	–	89.2 µM	–	> 100 µM
CC1=C(C(=O)Nc2ccc(F)c(Cl)c2)C(c2ccccc2O)NC(=S)N1 (stereo not given)	45.8 µM	> 50 µM	17.3 µM	45.7 µM	45.1 µM	> 50 µM	23.6 µM	> 50 µM	> 50 µM	> 50 µM	> 50 µM	> 50 µM	21.6 µM	> 50 µM	23.6 µM	> 50 µM	> 50 µM	> 50 µM	> 50 µM	> 50 µM
CC1(C)N=C(N)N=C(N)N1c1ccc(CCCCc2ccc(Cl)cc2S(=O)(=O)F)c(Cl)c1	2.04 µM	18.2 µM	0.558 µM	15.8 µM	0.464 µM	> 51.3 µM	0.242 µM	13.4 µM	0.993 µM	11.4 µM	1.23 µM	29.2 µM	0.562 µM	13.2 µM	3.07 µM	25.1 µM	0.34 µM	14.7 µM	5.82 µM	25.7 µM
NC(=O)/C=C/C(=O)c1c(Cl)cccc1Cl	0.971 µM	2.5 µM	1.65 µM	3.04 µM	–	2.3 µM	0.793 µM	2.16 µM	1.23 µM	2.47 µM	2.52 µM	8.25 µM	0.264 µM	1.14 µM	1.83 µM	4.01 µM	1.4 µM	2.69 µM	1.22 µM	2.92 µM
N#Cc1c(N)nc(N2CCOCC2)c(C#N)c1-c1ccncc1	49.1 µM	> 100 µM	> 100 µM	> 100 µM	> 100 µM	> 100 µM	80.1 µM	> 100 µM	21.6 µM	> 100 µM	75.9 µM	> 100 µM	> 100 µM	> 100 µM	> 100 µM	> 100 µM	88.6 µM	> 100 µM	72.4 µM	> 100 µM
COC(=O)COc1ccccc1/C=C1\N=C(c2ccccc2)N(c2cc(C(F)(F)F)ccc2Cl)C1=O	79 µM	> 100 µM	22.1 µM	47.1 µM	> 100 µM	> 100 µM	24.9 µM	73.6 µM	> 100 µM	> 100 µM	66.6 µM	> 100 µM	24.9 µM	72.7 µM	28.5 µM	> 100 µM	60.5 µM	> 100 µM	56.3 µM	> 100 µM
COc1cccc(F)c1C(=O)c1cnc(NC2CCN(S(C)(=O)=O)CC2)nc1N	3.4 µM	> 22.9 µM	6.54 µM	> 22.8 µM	3.63 µM	> 25 µM	1.85 µM	> 25 µM	2.74 µM	> 22.1 µM	3.72 µM	> 18.9 µM	1.96 µM	11.3 µM	3.43 µM	9.94 µM	5.08 µM	> 25 µM	4.03 µM	> 25 µM
C(=NCCN1CCOCC1)=NC1CCCCC1	–	> 100 µM	–	> 100 µM	–	> 100 µM	–	> 100 µM	–	> 100 µM	–	> 100 µM	–	> 100 µM	–	> 100 µM	–	> 100 µM	–	> 100 µM
Cc1cc(Cl)cc(OCCn2cc(F)cn2)c1-c1nc(N)nc2c1CN(C(=O)NCC(C)(F)F)C2	0.755 µM	> 100 µM	0.0652 µM	> 100 µM	0.386 µM	> 100 µM	0.0852 µM	0.552 µM	0.257 µM	> 100 µM	0.233 µM	> 100 µM	–	> 100 µM	0.508 µM	> 100 µM	0.0745 µM	> 100 µM	0.144 µM	> 100 µM
COc1cc(OCc2cccc(-c3ccc(C(O)c4nccs4)cc3)c2C)cc(OC)c1C=O (stereo not given)	0.182 µM	3.3 µM	2.81 µM	10.5 µM	1.79 µM	4.4 µM	1.79 µM	4.08 µM	2.2 µM	7.32 µM	0.37 µM	2.7 µM	1.34 µM	5.47 µM	2.58 µM	8.53 µM	1.98 µM	7.07 µM	1.69 µM	13.7 µM
Cc1ccc(S(=O)(=O)Nc2ccccc2C=O)cc1	–	> 100 µM	–	> 100 µM	–	31.6 µM	–	27.5 µM	–	41 µM	–	41.5 µM	–	36 µM	–	30.4 µM	–	45 µM	–	52.4 µM
O=C(Nc1ccc2ncccc2c1)Nc1ccc2ncccc2c1	–	> 100 µM	–	> 100 µM	–	> 100 µM	–	> 100 µM	–	> 100 µM	–	> 100 µM	–	> 100 µM	–	> 100 µM	–	> 100 µM	–	> 100 µM

— PubChem BioAssay (NCI)
